Results as given in article PMC5574184 (Journal of medicinal chemistry, 2016).
“Also recorded” adds a separate entry of the source. Each block holds one molecule with its values, some of them ahead of it.

Experiments:
HDAC1 = HDAC1 (Homo sapiens, UniProt Q13547); experiment: ELISA-based HDAC activity assay; type: biochemical
HDAC2 = HDAC2 (Homo sapiens, UniProt Q92769); experiment: ELISA-based HDAC activity assay; type: biochemical
HDAC3 = HDAC3 (Homo sapiens, UniProt O15379); experiment: ELISA-based HDAC activity assay; type: biochemical
HDAC3, sequence (O15379 whole entry): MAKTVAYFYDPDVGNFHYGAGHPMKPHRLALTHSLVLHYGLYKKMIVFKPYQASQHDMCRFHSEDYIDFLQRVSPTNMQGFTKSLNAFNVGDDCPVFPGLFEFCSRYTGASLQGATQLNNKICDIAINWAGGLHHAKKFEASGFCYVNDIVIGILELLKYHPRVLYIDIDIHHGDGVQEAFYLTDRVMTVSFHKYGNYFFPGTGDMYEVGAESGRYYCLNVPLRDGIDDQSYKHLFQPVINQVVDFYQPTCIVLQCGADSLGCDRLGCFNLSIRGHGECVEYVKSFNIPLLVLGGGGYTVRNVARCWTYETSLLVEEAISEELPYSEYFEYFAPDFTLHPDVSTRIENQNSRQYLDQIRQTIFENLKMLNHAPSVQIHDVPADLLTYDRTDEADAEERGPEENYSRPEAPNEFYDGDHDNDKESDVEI
HDAC3, sequence (Q9Y618 whole entry partner): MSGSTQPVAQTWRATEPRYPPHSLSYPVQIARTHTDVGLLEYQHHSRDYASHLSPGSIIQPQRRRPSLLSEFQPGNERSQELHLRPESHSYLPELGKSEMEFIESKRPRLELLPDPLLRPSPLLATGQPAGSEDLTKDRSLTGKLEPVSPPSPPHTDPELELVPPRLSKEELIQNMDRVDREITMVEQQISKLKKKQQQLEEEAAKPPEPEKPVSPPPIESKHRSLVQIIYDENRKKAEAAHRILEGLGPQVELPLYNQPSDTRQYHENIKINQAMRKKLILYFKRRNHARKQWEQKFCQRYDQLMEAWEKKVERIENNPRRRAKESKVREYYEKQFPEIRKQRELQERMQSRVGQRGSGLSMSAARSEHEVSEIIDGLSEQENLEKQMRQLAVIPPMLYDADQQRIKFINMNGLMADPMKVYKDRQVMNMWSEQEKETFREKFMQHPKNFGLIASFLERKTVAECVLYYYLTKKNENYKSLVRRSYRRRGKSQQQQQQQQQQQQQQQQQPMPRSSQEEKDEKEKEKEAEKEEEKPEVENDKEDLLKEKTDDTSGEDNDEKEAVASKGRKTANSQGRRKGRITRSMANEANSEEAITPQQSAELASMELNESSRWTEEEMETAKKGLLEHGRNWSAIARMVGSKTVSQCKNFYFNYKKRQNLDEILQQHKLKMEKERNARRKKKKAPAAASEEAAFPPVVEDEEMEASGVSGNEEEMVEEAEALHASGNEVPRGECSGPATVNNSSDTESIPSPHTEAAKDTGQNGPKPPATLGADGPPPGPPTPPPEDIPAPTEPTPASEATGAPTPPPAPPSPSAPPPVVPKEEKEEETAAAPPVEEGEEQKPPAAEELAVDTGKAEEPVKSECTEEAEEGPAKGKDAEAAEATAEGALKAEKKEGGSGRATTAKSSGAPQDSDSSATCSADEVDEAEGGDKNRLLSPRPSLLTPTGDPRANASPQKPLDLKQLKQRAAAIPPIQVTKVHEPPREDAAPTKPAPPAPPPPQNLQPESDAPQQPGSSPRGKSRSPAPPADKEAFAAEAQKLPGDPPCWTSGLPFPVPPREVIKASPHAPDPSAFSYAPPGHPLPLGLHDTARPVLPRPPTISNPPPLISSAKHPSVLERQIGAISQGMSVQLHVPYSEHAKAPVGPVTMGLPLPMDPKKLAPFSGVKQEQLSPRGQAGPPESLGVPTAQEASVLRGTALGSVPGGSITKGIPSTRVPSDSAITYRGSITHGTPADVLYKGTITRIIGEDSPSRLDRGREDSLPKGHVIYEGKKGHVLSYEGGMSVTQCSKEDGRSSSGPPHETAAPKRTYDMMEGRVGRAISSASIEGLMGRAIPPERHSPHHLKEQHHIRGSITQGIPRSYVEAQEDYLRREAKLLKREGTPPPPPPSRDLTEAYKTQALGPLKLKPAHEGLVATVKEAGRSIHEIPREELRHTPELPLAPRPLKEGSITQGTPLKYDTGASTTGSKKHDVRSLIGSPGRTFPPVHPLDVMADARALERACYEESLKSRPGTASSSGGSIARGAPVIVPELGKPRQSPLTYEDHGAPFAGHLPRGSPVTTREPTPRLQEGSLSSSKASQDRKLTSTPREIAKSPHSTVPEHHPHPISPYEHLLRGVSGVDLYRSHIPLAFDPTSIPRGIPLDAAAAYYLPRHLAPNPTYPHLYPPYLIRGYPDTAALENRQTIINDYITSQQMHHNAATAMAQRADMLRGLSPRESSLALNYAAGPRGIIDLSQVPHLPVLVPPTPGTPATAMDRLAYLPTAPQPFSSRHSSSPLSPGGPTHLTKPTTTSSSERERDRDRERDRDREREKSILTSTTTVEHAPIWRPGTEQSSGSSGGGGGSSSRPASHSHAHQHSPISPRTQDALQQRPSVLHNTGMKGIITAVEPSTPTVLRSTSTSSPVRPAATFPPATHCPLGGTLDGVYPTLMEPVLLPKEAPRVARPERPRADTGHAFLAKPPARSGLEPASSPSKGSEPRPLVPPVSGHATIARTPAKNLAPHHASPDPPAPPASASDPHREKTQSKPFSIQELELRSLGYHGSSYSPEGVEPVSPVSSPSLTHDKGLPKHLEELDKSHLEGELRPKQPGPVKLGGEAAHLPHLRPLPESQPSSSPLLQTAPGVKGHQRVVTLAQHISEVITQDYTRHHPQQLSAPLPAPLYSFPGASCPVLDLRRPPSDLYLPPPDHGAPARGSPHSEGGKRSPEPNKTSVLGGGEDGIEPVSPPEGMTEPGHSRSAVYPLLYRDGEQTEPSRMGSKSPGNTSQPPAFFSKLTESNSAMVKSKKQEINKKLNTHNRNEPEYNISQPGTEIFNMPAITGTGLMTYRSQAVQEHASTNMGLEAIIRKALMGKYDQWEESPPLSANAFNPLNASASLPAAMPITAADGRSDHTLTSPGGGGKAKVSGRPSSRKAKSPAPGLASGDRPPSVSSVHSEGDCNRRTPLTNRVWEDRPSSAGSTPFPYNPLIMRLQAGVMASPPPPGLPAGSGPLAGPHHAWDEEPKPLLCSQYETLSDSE

60 NCI cell lines = experiment: NCI-60 dose response assay; type: cell-based, human; conditions: for GI50 in the dose response assay (in words): most of the NCI-60 cell lines
[1] = system: global histone H3 lysine 9 (H3K9) acetylation in HCT116; experiment: Western blot analysis of global histone H3 lysine 9 acetylation; type: cell-based, human; conditions: for concentration at which significant induction of global acetylation was observed: HCT116, 24 h exposure, tested at 10 nM, 100 nM, 1 μM
HDAC6 = biological target: T1, HDAC6 (Homo sapiens, UniProt Q9UBN7); experiment: ELISA-based HDAC activity assay; type: biochemical
T1 sequence (Q9UBN7 1-1215): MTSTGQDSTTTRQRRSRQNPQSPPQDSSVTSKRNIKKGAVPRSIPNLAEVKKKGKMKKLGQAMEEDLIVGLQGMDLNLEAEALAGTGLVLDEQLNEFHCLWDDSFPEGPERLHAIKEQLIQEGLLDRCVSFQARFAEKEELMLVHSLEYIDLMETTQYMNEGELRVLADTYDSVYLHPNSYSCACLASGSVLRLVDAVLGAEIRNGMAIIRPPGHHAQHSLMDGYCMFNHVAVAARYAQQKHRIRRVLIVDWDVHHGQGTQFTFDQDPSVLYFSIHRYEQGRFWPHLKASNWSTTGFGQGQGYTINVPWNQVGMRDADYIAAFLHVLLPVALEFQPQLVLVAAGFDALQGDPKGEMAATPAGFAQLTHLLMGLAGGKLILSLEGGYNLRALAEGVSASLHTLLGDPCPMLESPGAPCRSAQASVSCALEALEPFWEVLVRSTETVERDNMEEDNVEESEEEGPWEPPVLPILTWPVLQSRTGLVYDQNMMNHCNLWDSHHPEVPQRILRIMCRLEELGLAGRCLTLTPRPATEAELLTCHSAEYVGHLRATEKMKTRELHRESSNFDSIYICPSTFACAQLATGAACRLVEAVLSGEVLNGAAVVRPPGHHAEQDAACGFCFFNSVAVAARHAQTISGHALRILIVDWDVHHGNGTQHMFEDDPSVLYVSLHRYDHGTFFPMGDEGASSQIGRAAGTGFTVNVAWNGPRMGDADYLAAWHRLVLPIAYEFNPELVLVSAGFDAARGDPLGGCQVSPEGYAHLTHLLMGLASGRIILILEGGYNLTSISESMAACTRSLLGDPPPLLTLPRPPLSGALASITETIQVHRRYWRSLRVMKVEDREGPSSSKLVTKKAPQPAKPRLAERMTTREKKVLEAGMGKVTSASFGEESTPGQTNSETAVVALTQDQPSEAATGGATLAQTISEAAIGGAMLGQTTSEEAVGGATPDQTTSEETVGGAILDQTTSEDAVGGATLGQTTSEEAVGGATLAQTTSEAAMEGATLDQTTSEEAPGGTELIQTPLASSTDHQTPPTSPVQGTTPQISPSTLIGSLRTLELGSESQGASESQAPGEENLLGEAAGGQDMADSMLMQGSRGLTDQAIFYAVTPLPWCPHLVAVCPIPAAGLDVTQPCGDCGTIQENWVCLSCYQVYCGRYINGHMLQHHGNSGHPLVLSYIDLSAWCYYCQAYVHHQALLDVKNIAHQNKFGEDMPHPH

[2] = NCI nontumored animal toxicity assay for acute toxicity; type: in vivo; conditions: highest dose of 50 mg/kg tested
[3] = system: HCT116 colorectal cancer cell line; conditions: read-out: GI50 previously reported; HCT 116 cell growth inhibition; cited from earlier work
[4] = mouse serum, mouse microsomal proteins, cellular proteins; cited from earlier work

HDAC2, sequence (Q92769 whole entry): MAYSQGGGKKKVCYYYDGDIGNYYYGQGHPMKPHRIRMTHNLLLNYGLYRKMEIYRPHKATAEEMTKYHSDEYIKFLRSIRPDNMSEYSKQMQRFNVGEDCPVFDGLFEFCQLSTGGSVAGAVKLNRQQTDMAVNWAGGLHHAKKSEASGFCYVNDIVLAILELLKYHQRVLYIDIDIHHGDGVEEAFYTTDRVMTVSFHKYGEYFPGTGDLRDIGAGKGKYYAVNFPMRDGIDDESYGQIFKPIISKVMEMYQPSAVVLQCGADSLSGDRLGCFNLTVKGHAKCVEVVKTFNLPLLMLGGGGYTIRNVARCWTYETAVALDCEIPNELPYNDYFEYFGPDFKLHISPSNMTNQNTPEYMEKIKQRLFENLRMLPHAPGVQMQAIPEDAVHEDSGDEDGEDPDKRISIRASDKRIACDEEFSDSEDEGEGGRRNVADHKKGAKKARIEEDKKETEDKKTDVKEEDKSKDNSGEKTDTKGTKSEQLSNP
HDAC1, sequence (Q13547 whole entry): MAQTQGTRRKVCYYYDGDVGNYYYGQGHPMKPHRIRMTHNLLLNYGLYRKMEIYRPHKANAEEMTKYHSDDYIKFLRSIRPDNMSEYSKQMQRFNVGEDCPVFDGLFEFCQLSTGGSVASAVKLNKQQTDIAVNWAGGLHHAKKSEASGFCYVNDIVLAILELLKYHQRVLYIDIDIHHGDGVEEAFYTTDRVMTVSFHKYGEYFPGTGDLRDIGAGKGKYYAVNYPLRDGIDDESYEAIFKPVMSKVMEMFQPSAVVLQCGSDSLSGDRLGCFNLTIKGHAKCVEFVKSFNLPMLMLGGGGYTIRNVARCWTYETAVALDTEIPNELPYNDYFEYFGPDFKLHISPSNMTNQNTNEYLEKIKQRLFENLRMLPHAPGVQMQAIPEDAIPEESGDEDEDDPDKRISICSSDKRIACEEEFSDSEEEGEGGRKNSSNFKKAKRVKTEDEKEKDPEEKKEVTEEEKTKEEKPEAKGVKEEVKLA

inhibition of HDAC1, single concentration screen (HDAC1; 2 μM): significantly
inhibition of HDAC2, single concentration screen (HDAC2; 2 μM): significantly
inhibition of HDAC3, single concentration screen (HDAC3; 2 μM): significantly
SMILES: CCCCCCCC(=O)SCC/C=C/[C@@H]1CC(=O)NCCOCCOCC(=O)N[C@@H](C(C)C)C(=O)O1 [Analogue 6]

SMILES: CCCCCCCC(=O)SCC/C=C/[C@@H]1CC(=O)NCc2cccc(n2)-c2cccc(n2)C(=O)N[C@@H](C(C)C)C(=O)O1 [Analogue 7]
concentration inhibiting the growth of most of the cancer cell lines (60 NCI cell lines; NCI-60 dose response): < 10 nM
GI50 in the dose response assay (in words) (60 NCI cell lines): low nanomolar
concentration at which significant induction of global acetylation was observed [1]: 10 nM
inhibition of HDAC1, single concentration screen (HDAC1; 250 nM): significantly
inhibition of HDAC2, single concentration screen (HDAC2; 250 nM): significantly
inhibition of HDAC3, single concentration screen (HDAC3; 250 nM): significantly
selectivity for class I HDAC proteins (HDAC1, HDAC2, HDAC3) over class II HDAC6 (HDAC6; from IC50 values): at least 464 fold
acute toxicity [2]: no signs of toxicity; also recorded: well tolerated

SMILES: CCCCCCCC(=O)SCC/C=C/[C@@H]1CC(=O)NCc2cccc(n2)CN(C)CC(=O)N[C@@H](C(C)C)C(=O)O1 [Analogue 8]
GI50 in the dose response assay (in words) (60 NCI cell lines): micromolar GI50s
inhibition of HDAC6, single concentration screen (HDAC6; 1 μM): slightly greater inhibition of HDAC6 compared to 6 and 7

SMILES: CCCCCCCC(=O)SCC/C=C/[C@@H]1CC(=O)NCc2cccc(n2)CN(Cc2cccc3ccccc23)CC(=O)N[C@@H](C(C)C)C(=O)O1 [Analogue 13]
global acetylation observed ([1]; HCT116, even at 100 nM): hardly any global acetylation

SMILES: CCCCCCCC(=O)SCC/C=C/[C@@H]1CC(=O)NCc2nc(cs2)C2=N[C@@](C)(CS2)C(=O)N[C@@H](C(C)C)C(=O)O1 [Largazole]
concentration at which significant induction of global acetylation was observed [1]: 10 nM
GI50 [3]: 44 nM
metabolic conversion [4]: rapidly converted to the active metabolite largazole thiol
